Experimental data as given in patent US20200318165A1, “Rapid Identification of Microorganisms” (Board of Regents of the Nevada System of Higher Education, …, priority 2015, published 2020).

What was measured:
E. coli = test: Cellular uptake monitored by Transmission Electron Microscopy; assay type: cell-based; settings: 5 μg/mL, 30 min, FIG. 3A
Experimental: (§1) TEM was used to examine whether the retention of C60-pyrrolidine tris acid was localized within the cytosol. Microorganisms were incubated with C60-pyrrolidine tris acid (5 μg/mL) for 30 min. Cells were pelleted by centrifugation at 5,000 rcf (5 min) and washed 5 times with DI H2O. Microorganisms were fixed in 2.5% glutaraldehyde/PBS solution for 30 min. The cells were then pelleted by centrifugation at 5,000 rcf for 5 min. The cell pellet was placed in fresh 2.5% glutaraldehyde/PBS solution at 4° C. overnight. Next, cell pellets were dehydrated by a series of acetone treatments (30% for 15 min, 50% for 15 min, 70% for 15 min, 90% for 15 min and a final treatment at 100% for 30 min, and repeated 3 times), embedded in resin (2:1 mix of propylene oxide:resin for 1 hour, 1:1 mix of propylene oxide:resin for 1 hour, 1:2 mix of propylene oxide: resin for 1 hour, 100% resin overnight, and change to fresh resin 1 h), incubated for 24 h at 37° C., sectioned (60 nm in thickness), and imaged using a Tecnai 12 TEM.
(§2) To test the hypothesis that functionalized C60-pyrrolidine tris acid internalizes within the cell, microorganisms were imaged with TEM. Both E. coli and B. subtilis were incubated with C60-pyrrolidine tris acid, washed to remove excess compound, sectioned into slices of 60 nm thickness, and then imaged by TEM. […]

B. subtilis = test: as above; assay type: cell-based; settings: 5 μg/mL, 30 min, FIG. 3B
Experimental: as §1, §2

[1] = Fluorescence of the probe itself without bacteria; assay type: physicochemical; settings: excitation of 568 nm laser
Text: Methods were developed to distinguish different species of live bacteria by functionalization of C60 with RNA oligonucleotides hybridized with reporter compounds. The signature RNA oligonucleotides are designed in accordance with the signature information on 16s ribosome RNA, which is unique to each species (Reischl et al., Clin Chem 52, 1985-1987 (2006) and Dresios et al., Journal of molecular biology 345, 681-693 (2005), each of which is hereby incorporated by reference in its entirety). The strategy to recognize a certain bacteria is shown in FIGS. 20A-20C and operates as follows: • (1) C60 molecules were functionalized with signature RNA oligonucleotides containing signature information (e.g., calling card) of a certain species. The Signature RNA oligonucleotides were typically screened through bioinformatics analysis. • (2) A reporter sequence, which is conjugated to a fluorophore, was hybridized with the signature sequence. The fluorophore was silent while hybridized but fluoresced once released. • (3) The C60 complex penetrated the bacteria and released the reporter if the bacteria contained ribosomal signature information that matches the signature RNA oligonucleotide on the C60 complex. The released reporter sequence emitted a fluorescent signal and was detected while free in the cytoplasm. […]

Q: For C60-pyrrolidine tris acid, which “Localization in sectioned cells (TEM)” value (E. coli) is on record?
A: localizes within the cell

Q: What about the “Localization in sectioned cells (TEM)” value (B. subtilis) of the same substance?
A: localizes within the cell

Q: What about the Autofluorescence [1] of the same substance?
A: no autofluorescence
